The source of these data is ChEMBL document CHEMBL1201862, “PubChem BioAssay data set” (2004).

Structures are written as SMILES.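 Five concentrations, 48 hours, 96-well plates. GI50: concentration for 50% inhibition of growth.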 The source made the active and inactive calls. Rule as the data show it: active = GI50 up to about 1.1 µM and inactive = higher.

Holding throughout (assay): inhibition of tumour cell growth, NCI panel, 48 h
Assay [1] relates to 786-0.
Assay [2] deals with CCRF-CEM.
For assay [3], the system named is COLO 205.
Assay [4] deals with HOP-92.
The subject of assay [5] is IGROV-1.
The test system of assay [6] is K562.
Assay [7] relates to KM12.
The subject of assay [8] is NCI-H23.
The test system of assay [9] is OVCAR-5.
In assay [10] the test system is OVCAR-8.
The subject of assay [11] is SF-268.
The subject of assay [12] is SF-295.
Assay [13] relates to SN12C.
Assay [14] relates to UACC-257.
In assay [15] the test system is UACC-62.
For assay [16], the system named is HCT-15.
In assay [17] the test system is M14.

Take `O=C(N/N=C/c1cc(Br)ccc1O)N/N=C/c1cc(Br)ccc1O`: the GI50 in [1] was 4.93 µM (inactive); in assay [2] it was 1.4 µM (inactive); in [3], 4.45 µM (inactive); in assay [4], 0.661 µM (active); in [5], 2.14 µM (inactive); in [6], 0.377 µM (active). Moreover, the GI50 in assay [7] was 5.35 µM (inactive); in [8], 2.31 µM (inactive); in assay [9] it was 2.84 µM (inactive); in assay [10], 2.54 µM (inactive); in assay [11], 5.75 µM (inactive); in assay [12], 3.84 µM (inactive). Further, the GI50 is 5.35 µM (inactive) in assay [13], 4.3 µM (inactive) in [14] and 2.24 µM (inactive) in assay [15].
In the case of `CSc1ccc(Cc2cc(C(C)(C)C)cc(C(C)(C)C)c2O)cc1`, the GI50 in assay [1] was 16.7 µM (inactive); in assay [2], 15.5 µM (inactive); in assay [16], 14 µM; in assay [5] it was 13.8 µM (inactive); in [6] it was 12 µM (inactive); in assay [7], 11 µM (inactive). Moreover, the GI50 in assay [17] was 15.1 µM (inactive); in assay [8] it was 14.5 µM (inactive); in [9] it was 3.11 µM (inactive); in [10], 16.9 µM (inactive); in [11], 15.8 µM (inactive); in assay [12], 17.6 µM (inactive). In addition, the figures for the GI50 in [13], in assay [14] and in assay [15] were 15.1 µM (inactive), 14.7 µM (inactive) and 15.3 µM (inactive), respectively.
With `CC(C)(C)C1=Cc2cc3cc(C(C)(C)C)[nH]c(=O)c3cc2S(=O)(=O)N1`, the GI50 was 26.2 µM (inactive) in assay [1]; 26.6 µM (inactive) in [2]; 21.5 µM (inactive) in [3]; 16.7 µM (inactive) in assay [4]; 45.4 µM (inactive) in assay [6]; 30.6 µM (inactive) in assay [7]. Also, the GI50 was 14.6 µM (inactive) in assay [17]; 29.9 µM (inactive) in assay [8]; 33.7 µM (inactive) in assay [9]; 39.8 µM (inactive) in assay [10]; 26.1 µM (inactive) in assay [11]; 28.5 µM (inactive) in [12]. Besides, the GI50 in assay [13] was 42.7 µM (inactive); in assay [14], 25.1 µM (inactive); in assay [15], 18.4 µM (inactive).
As for `CCOC(=O)/C(C(=O)c1ccccc1)=C1\N[C@H](C(=O)OCC)CS1`, the GI50 is 10 µM (inactive) in assay [1]; > 100 µM (inactive) in assay [2]; > 100 µM (inactive) in assay [3]; greater than 100 µM in [16]; > 100 µM (inactive) in assay [5]; > 100 µM (inactive) in assay [6]. Further, the GI50 in assay [7], in assay [17], in assay [8], in assay [9], in assay [10] and in assay [11] was > 100 µM (inactive) in each case. In addition, the GI50 in assay [12], in [13], in [14] and in assay [15] was > 100 µM (inactive) each time.
For the compound `CC1CC(c2ccc(Cl)cc2)=Nc2ccccc2S1` (stereo not drawn), the GI50 in assay [1] was > 100 µM (inactive); in [2], > 100 µM (inactive); in assay [3] it was > 100 µM (inactive); in assay [16], greater than 100 µM; in [5], > 100 µM (inactive); in assay [6], > 100 µM (inactive). For the same compound, the GI50 in assay [7], in assay [17], in [8], in assay [9], in [10] and in [11] was > 100 µM (inactive) throughout. For the same compound, the GI50 in assay [12], in [13], in assay [14] and in assay [15] was > 100 µM (inactive) throughout.
Turning to `O=C(CCC(=O)Nc1ccc(Cl)cc1)CC(=O)c1ccc(F)cc1`, the GI50 is > 100 µM (inactive) in assay [1]; > 100 µM (inactive) in assay [3]; greater than 100 µM in assay [16]; > 100 µM (inactive) in assay [4]; > 100 µM (inactive) in [5]; > 100 µM (inactive) in assay [6]. In addition, the GI50 in assay [7], in [17], in assay [8], in assay [9], in assay [10] and in [11] was > 100 µM (inactive) throughout. In addition, the GI50 in [12], in assay [13], in assay [14] and in assay [15] was > 100 µM (inactive) throughout.
For `NC(=S)N/N=C(\C(=O)Nc1ccc(Cl)c(Cl)c1)C1=NN(c2ccccc2)C(c2cccc([N+](=O)[O-])c2)CC1=O` (stereo not drawn), the GI50 in [1] was 17.6 µM (inactive); in assay [2] it was 17.2 µM (inactive); in assay [3], 19 µM (inactive); in assay [16] it was 30.8 µM; in [5], 27 µM (inactive); in assay [6] it was 17.9 µM (inactive). Also, the GI50 is 85.9 µM (inactive) in assay [7]; 55.1 µM (inactive) in assay [17]; 21.5 µM (inactive) in assay [8]; 38.5 µM (inactive) in assay [9]; 26.7 µM (inactive) in [10]; 38.5 µM (inactive) in assay [11]. Further, the GI50 in assay [12] is 24.9 µM (inactive); in assay [13] it was 16.8 µM (inactive); in assay [14], 30.2 µM (inactive); in [15], 40.8 µM (inactive).
`O=C(O)CCc1nn2c(nc1=O)sc1ccc3ccccc3c12`: the GI50 in assay [1] is > 100 µM (inactive); in assay [2] it was > 100 µM (inactive); in assay [3], > 100 µM (inactive); in assay [16], greater than 100 µM; in assay [4], > 100 µM (inactive); in [5], > 100 µM (inactive). The GI50 in [6], in [17], in assay [8], in assay [10], in [11] and in [12] was > 100 µM (inactive) each time. The GI50 in assay [13], in [14] and in assay [15] was > 100 µM (inactive) in each case.
Turning to `CCOC(=O)NC(=O)c1cn(C2OC(COC(=O)CCCCCCCCC(=O)OCC3OC(n4cc(C(=O)NC(=O)OCC)c(=O)[nH]c4=O)C(O)C3O)C(O)C2O)c(=O)[nH]c1=O` (stereo not drawn), the GI50 in [1] is > 100 µM (inactive); in assay [2], > 100 µM (inactive); in assay [16], greater than 100 µM; in assay [5], > 100 µM (inactive); in [6], > 100 µM (inactive); in [7], > 100 µM (inactive). The GI50 in assay [17], in assay [8], in assay [9], in assay [10], in [11] and in assay [12] was > 100 µM (inactive) in each case. The GI50 in assay [13], in [14] and in [15] was > 100 µM (inactive) in each case.
`COC1OC(OC)C2C(c3c(C)cc(C)cc3C)=NOC12` (stereo not drawn): the GI50 in [1] was > 100 µM (inactive); in assay [2] it was > 100 µM (inactive); in [3], > 100 µM (inactive); in [16], greater than 100 µM; in [4], > 100 µM (inactive); in assay [5], > 100 µM (inactive). In addition, the GI50 in [6], in [7], in assay [17], in [8], in assay [9] and in assay [10] was > 100 µM (inactive) in each case. The GI50 in [11], in assay [12], in assay [14] and in [15] was > 100 µM (inactive) throughout.
Consider `COC(=O)/C(=N\Nc1nnc(C)n1N)C(C#N)c1ccc(Cl)cc1` (stereo not drawn), for which the GI50 in assay [1] was 34.7 µM (inactive); in [3], 95.1 µM (inactive); in assay [16], greater than 100 µM; in assay [4] it was > 100 µM (inactive); in assay [5], > 100 µM (inactive); in assay [7], > 100 µM (inactive). Besides, the GI50 in [17], in [8], in assay [9], in assay [10], in assay [11] and in assay [12] was > 100 µM (inactive) in each case. In addition, the GI50 in assay [13], in assay [14] and in assay [15] was > 100 µM (inactive) throughout.
In the case of `N#CC(C(=O)/C(=N\Nc1nc(S)nn1N)C(C#N)c1ccc(Cl)cc1)c1ccc(Cl)cc1` (stereo not drawn), the GI50 was > 100 µM (inactive) in [1]; > 100 µM (inactive) in assay [3]; greater than 100 µM in [16]; > 100 µM (inactive) in assay [4]; > 100 µM (inactive) in [5]; > 100 µM (inactive) in assay [7]. Further, the GI50 in [17], in [8], in assay [9], in assay [10], in assay [11] and in assay [12] was > 100 µM (inactive) throughout. Further, the GI50 in [13], in [14] and in [15] was > 100 µM (inactive) throughout.
With `Cc1cccc2c(=O)cc(-c3ccccc3)[nH]c12`, the GI50 in assay [1] is 4.78 µM (inactive); in [2], 3.62 µM (inactive); in assay [3] it was 4.36 µM (inactive); in assay [16] it was 4.23 µM; in [5], 7.26 µM (inactive); in assay [6], 2 µM (inactive). Besides, the GI50 in assay [17] is 3.45 µM (inactive); in [8] it was 4.91 µM (inactive); in assay [11] it was 8.15 µM (inactive); in assay [12], 4.09 µM (inactive); in assay [13], 5.42 µM (inactive); in assay [14] it was 5.22 µM (inactive). Moreover, the GI50 in [15] is 4.21 µM (inactive).
